Source: patent US20150174202A1, “Methods and Compositions for Modulating Beta Cell Proliferation” (The Board of Trustees of the Leland Stanford Junior …, priority 2011, published 2015)

Assays:
Pdgfr-α = target: T1, Pdgfr-α (Mus musculus, UniProt P26618); test: Phosphorylation of Pdgfr-α in cultured mouse islets (western blot); type: cell-based; conditions: 3-week-old mouse islets exposed to PDGF-AA
T1 construct: endogenous in cells; host or cells: primary pancreatic islets from C57BL/6 mice (3-week-old wild-type islets), cultured ex vivo
Method: Mouse pancreatic islets were purified as described in Chen et al. (2009) Genes Dev. 23, 975-985 and used immediately for assays described in the text. To study Ezh2 induction in cultured islets exposed to mitogens, freshly isolated islets from 2-3-week old, and 7-12-month old C57BL/6 mice were recovered and equilibrated overnight at 37° C., 5% CO2 in RPMI-1640 medium supplemented with 0.5% fetal bovine serum (FBS), 0.2% bovine albumin (BSA) and 2% penicillin/streptomycin. Afterwards, islets were distributed into microplates or dishes, and treated with recombinant human PDGF-AA, prolactin or insulin (Sigma), with or without addition of pharmacological inhibitors, including Sunitinib (Selleck), Vargatef (Selleck), U0126 (Sigma), LY294002 (Sigma) or U-73122 (Sigma) at the indicated concentrations. Two days later, islets were harvested for RNA or protein extraction for real-time RTPCR or western blot analyses. To detect phosphorylation of Pdgfr-α by western blot, islets were exposed to PDGF-AA (with or without indicated pharmacological inhibitors) for 90 min before islet harvesting and protein extraction. […] Immunostaining of BrdU and insulin was performed on processed islets, and β-cell proliferation rate was determined by quantifying percentage of insulin+ cells with BrdU+. […]

[1] = test system: INSULIN+ cells in human islet grafts; test: Human β-cell replication in islets transplanted into NOD-scid mice with PDGF-AA infusion; type: in vivo
Text: Exposure of islets from young human donors to purified PDGF-AA stimulates ERK-dependent signaling pathways culminating in enhanced β-cell proliferation. However, these studies have not yet shown if PDGF-AA activation is sufficient to drive regeneration of functional β-cell mass in vivo. To assess this question, equivalent numbers of size-matched islets from young (ages 1-10 years) and control adult donors (age >20 years) were transplanted into NOD-scid mice. […] PDGF-AA infusion stimulated β-cell expansion in human islet grafts. A 200% increase of INSULIN^+ cell BrdU incorporation in grafts from young human donors (n=3 independent juvenile donors, three week PDGF-AA infusion; FIG. 26B-C). By contrast, we observed no increase of BrdU incorporation by INSULIN^+ cells in adult islet grafts (n=2), as expected based on our prior observation that adult β-cells no longer express Pdgf receptor α or Pdgf receptor β. Promoting the expression of Pdgf receptor on adult islet β-cells, e.g. by promoting Wnt signaling and/or preventing DNA methylatransferase activity, will render these adult islet β-cells sensitive to PGF-AA infusion.

[2] = grafts from young human donors, three week PDGF-AA infusion

T1 sequence (P26618 25-1089): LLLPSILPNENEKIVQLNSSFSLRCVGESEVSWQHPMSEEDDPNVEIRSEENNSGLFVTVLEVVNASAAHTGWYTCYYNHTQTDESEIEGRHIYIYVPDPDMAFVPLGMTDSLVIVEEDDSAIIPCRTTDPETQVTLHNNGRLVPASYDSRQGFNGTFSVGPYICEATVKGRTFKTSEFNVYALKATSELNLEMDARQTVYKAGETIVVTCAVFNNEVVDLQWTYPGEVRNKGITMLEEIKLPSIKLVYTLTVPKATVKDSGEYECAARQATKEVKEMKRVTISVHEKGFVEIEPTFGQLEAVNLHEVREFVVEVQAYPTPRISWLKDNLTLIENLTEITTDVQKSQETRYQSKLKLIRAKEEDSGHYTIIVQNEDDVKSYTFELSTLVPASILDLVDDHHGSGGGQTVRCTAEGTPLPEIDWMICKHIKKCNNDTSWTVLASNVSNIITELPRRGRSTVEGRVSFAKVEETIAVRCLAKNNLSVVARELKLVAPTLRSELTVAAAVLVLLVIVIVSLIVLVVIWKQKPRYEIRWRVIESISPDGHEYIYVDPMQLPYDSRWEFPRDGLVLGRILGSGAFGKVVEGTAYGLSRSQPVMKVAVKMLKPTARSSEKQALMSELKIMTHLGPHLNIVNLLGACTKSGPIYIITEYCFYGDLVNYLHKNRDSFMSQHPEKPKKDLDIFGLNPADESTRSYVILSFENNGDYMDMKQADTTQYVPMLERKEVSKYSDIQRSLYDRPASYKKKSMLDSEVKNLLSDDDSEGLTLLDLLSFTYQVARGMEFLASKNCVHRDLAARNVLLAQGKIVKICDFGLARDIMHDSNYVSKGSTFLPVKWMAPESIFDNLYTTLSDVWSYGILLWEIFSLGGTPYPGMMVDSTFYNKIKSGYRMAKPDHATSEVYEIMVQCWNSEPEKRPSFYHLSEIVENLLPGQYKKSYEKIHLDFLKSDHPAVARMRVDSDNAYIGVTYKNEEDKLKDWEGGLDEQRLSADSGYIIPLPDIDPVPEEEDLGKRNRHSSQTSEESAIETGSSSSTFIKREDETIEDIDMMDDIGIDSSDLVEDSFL

Q: For “PDGF-AA: recombinant human PDGF-AA, a homodimer of PDGF alpha polypeptides”, which phospho-Pdgfr-α levels (Pdgfr-α) is on record?
A: The phospho-Pdgfr-α levels was “increased”.

Q: What about the “BrdU incorporation by INSULIN+ cells” value ([1]; adult human islet grafts, PDGF-AA infusion) of the same substance?
A: Its value is “no increase”.

Q: What about the “INSULIN+ cell BrdU incorporation (in words)” value [1, 2] of the same substance?
A: Its value is “Increase”.

Q: What about the “increase of INSULIN+ cell BrdU incorporation” value [1, 2] of the same substance?
A: Its value is 200%.
